Format in all cases: functional
The test system of assay [1] is SNB-19. Description: Growth inhibition of human SNB19 cells assessed as cell growth at 10 uM after 48 hrs by SRB assay. Conditions: SNB-19, 48 h, read-out: Activity. (In SRB staining, fixed cells bind dye roughly in proportion to their protein.)
The subject of assay [2] is NCI/ADR-RES. Nature of the assay: Growth inhibition of human NCI/ADR-RES cells assessed as cell growth at 10 uM after 48 hrs by SRB assay. The settings on record: read-out: Activity.
For assay [3], the system named is KM12. Description: Growth inhibition of human KM12 cells assessed as cell growth at 10 uM after 48 hrs by SRB assay. The settings on record: KM12, 48 h, read-out: Activity.
The subject of assay [4] is SNB-75. Description: Growth inhibition of human SNB75 cells assessed as cell growth at 10 uM after 48 hrs by SRB assay. The settings on record: SNB-75, 48 h, read-out: Activity.
Assay [5] deals with SF-268. Nature of the assay: Growth inhibition of human SF268 cells assessed as cell growth at 10 uM after 48 hrs by SRB assay. Conditions: SF-268, 48 h, read-out: Activity.

Molecules are shown by their SMILES.

Consider `CNC(=O)OC[C@H]1O[C@@H](n2cnc3c(NC(=O)Nc4ccccc4)ncnc32)[C@H](O[Si](C)(C)C(C)(C)C)[C@@H]1O[Si](C)(C)C(C)(C)C`, for which the growth at 10 µM in assay [1] amounted to 114%; in assay [2], 97.6%; in assay [3] it was 110%; in assay [4], 76.6%; in assay [5], 85.2%.

The record behind these values is ChEMBL document CHEMBL1681651, “A broad spectrum anticancer nucleoside with selective toxicity against human colon cells in vitro” (2011).
